Reference: patent US8173133B2, “Acyl pseudodipeptides which carry a functionalized auxiliary arm” (OM Pharma, priority 1999, dated 2012)
Several values for one entry are separate records, joined by “and”; a condition that tells them apart may be missing. Equal values may be shown once.

How the values were obtained:
[1] = test system: HIV-1 IIIB; assay: anti-HIV activity in MT-4 cells (MTT), HIV-1 IIIB; assay type: cell-based
Description: (§1) T MT-4 lymphocyte cell line which had been transformed into a continuous cell line by an HTLV infection, a virus associated with one form of leukemia, was used to test the antiviral activity (anti-HIV) of AZT- and d4T-conjugated compounds according to the invention, respectively. A characteristic feature of such cells is lack of survival following an HIV infection. The test is based on protection provided by the product (like AZT) against this viral destructive effect. Products were tested in serially diluted solutions in a 96-well plate. In the upper portion of the microplate, products were tested by incubation at various concentrations with cells and virus (in triplicate), so as to determine the concentration of product which affords cell protection against the viral destructive effect. IC50 of the product is taken as the concentration where a 50% loss of viable cell count is recorded. Viable cell count was done with MTT, a yellow tetrazolium compound which undergoes enzymatic reduction (at the mitochondrial level in viable cells) into a purple colored formazan compound. Wells containing viable cells are purple in colour, whereas dead cells give a persistent yellow color. Measurement of optical density (O.D.) allows this effect to be quantified.

[2] = test system: HIV-2 ROD; assay: anti-HIV activity in MT-4 cells (MTT), HIV-2 ROD; assay type: cell-based
Description: as §1

[3] = test system: MxA protein; assay: MxA protein induction in dendritic cells (Western blot); assay type: cell-based, human; settings: 1 μg/ml; after 24 hr and 48 hours; FIGS. 77, 78
Description: The ability of products of the invention to induce production of antiviral MxA protein by predendritic cells has been assessed. MxA production by cells was measured after an SDS-PAGE electrophoretic separation by a Western Blot assay
Extraction and analysis of protein was conducted as follows: cells were harvested, then washed 3 times with PBS (phosphate buffered saline) and lyzed with a 100 Mm Tris-HCl buffer, 150 mM NaCl, 5 mM EDTA, 1% Triton-100 containing 1 mM PMSF (phenylmethylsulphonyl fluoride) and 1 μ/ml of pepstatin as protease inhibitors. Lysis was carried out at a density of 10^6 cells for 100 μl of (5×) buffer containing 60 mM Tris-HCl (pH 6.8), 10% glycerol, 2% SDS, 14.4 mM 2-mercaptoethanol and 0.1% bromophenol). Samples were heated up to 95° C. for 5 min. in sealed Eppendorf tubes. Electrophoresis was performed on a 10 cm×10 cm 12% acrylamide minigel by running a sample having the same number of cells. Migration was effected with the following buffer: 25 mM Tris, 192 mM glycine, 0.1% SDS, pH 8.3. […]
Non specific bonding sites on the membrane were blocked with 5% skimmed milk in TBS (10 mM Tris-HCl, 150 Mm NaCl, pH 7.4) and allowing to stand for 1 hour at room temperature. […] In this system, HRP catalyzes a luminol-mediated chemiluminescent reaction which can be detected on a photographic film. […]

[4] = test system: K562 cells; assay: activation of NK cell cytotoxicity against K562 target cells (LDH release); assay type: cell-based, human
Description: PBMC were recovered from buffy coats according to the procedure previously described in example 4.6. […] Cells were incubated under such conditions for 24 hours. K562 cells (human leukemia cell line, ATCC #CCL 243, 20110-2209 Manassas (Va.), U.S.A.) were maintained in culture using RPMI medium containing 10% FCS and subjected to 2 passages per week.
In order to make cytotoxicity measurement, PBMC and K562 cells were washed twice in HBSS and resuspended in Phenol Red-free RPMI medium containing 5% FCS. PBMC were divided into a round bottom 96-well plate so as to achieve a PBMC/target ratio of 20/1, 10/1 and 5/1 in 50 μl volume. 5000 K562 cells (target) were added in each well using 50 μl of Phenol Red-free RPMI. Final volume was 100 μl. The plate was centrifuged to promote contact then incubated at 37° C. for 4 hours.
Cytotoxicity was assayed using a non radioactive CytoTox 96 kit based on measuring LDH release during cell lysis (kit #G1780, batch #124100, Promega, Madison, Wis.) according to the supplier's instructions.
The percentage of cytotoxicity was calculated according to the following equation: […]

[5] = test system: Leishmania LmCPb antigen; assay: Leishmania LmCPb immunization: IL-4 and γ IFN in lymph node cell supernatant (ELISA); assay type: in vivo, CBA mice; settings: lymph node cell cultures challenged with the parasite antigen
Description: CBA mice were administered through the tail a single subcutaneous injection (100 μl) of Leishmania parasite LmCPb antigen (3 μg per mouse)±adjuvant. […] Eleven days after injection, inguinal and periaortic lymph node cells (2 groups of 3 mice each) were cultured in triplicate in presence of purified LmCPb antigen or whole extract of the parasite (amastigote). At day 4, a supernatant sample is withdrawn and stored at −20° C. for IL-4 and γ IFN assay. Finally, tritiated thymidine (^3H-TdR) is added to the cultures to measure the proliferation reaction.
Cytokine assay is carried out by a sandwich ELISA assay (OptEIA®) kits for γ IFN and IL-4, BD, PharMingen, Basel, Switzerland) and the proliferation response is determined by measuring thymidine take-up (^3H-TdR). ^3H-TdR take-up given in cpm as the arithmetic mean value±standard deviation ([…] of 3 mice each) and IL-4 concentration given in pg/ml are individually reported for each pool of 3 mice as the arithmetic mean of two measurements (cytokine assay).
An LmCPb stock solution is prepared at a concentration of 150 μg/ml in PBS
Adjuvants: The stock solution of OM-294-MP-AC is prepared at a concentration of 0.9 mg/ml in water for injection, with addition of 0.1% triethanolamine.
Antigen-adjuvant mixture: Adjuvant preparation (4 volumes), which had been adjusted to an adequate final concentration in sterile PBS, is mixed just prior to injection with the antigen stock solution (1 volume).

[6] = pyrogenicity in the rabbit model; assay type: in vivo, New Zealand white rabbits; settings: for response in ° C. average (individual values): 3 rabbits
Description: 15 New Zealand white rabbits are divided into the following groups: • Group 1: 1.0 mg/kg • Group 2: 0.1 mg/kg • Group 3: 0.01 mg/kg • Group 4: 0.001 mg/kg • Group 5: water for injection
On the day of testing, rabbits are tightly held and weighed in boxes designed for this purpose. Temperature probes are inserted in the rectum are
1 hour after probe insertion, temperatures (preinjection) are recorded for 90 minutes and the mean value is calculated.
Each rabbit is then administered an i.v. injection of product or control (sterile water in 0.9% NaCl) via the marginal (lateral) ear vein. Temperature is measured at 30 minute intervals for 3 hours. Difference between the preinjection average temperature and maximum temperature is calculated and reported.
If the result obtained lies in-between, the test is repeated with 3 more rabbits.

In the case of `CCCCCCCCCCCC(=O)O[C@H](CCCCCCCCCCC)CC(=O)N[C@H](CC(=O)O)C(=O)NCCC[C@H](COC(=O)CCCCCNC(=O)CCC(=O)OC[C@@H]1C=C[C@H](n2cc(C)c(=O)[nH]c2=O)O1)NC(=O)C[C@H](O)CCCCCCCCCCC` [OM-197-MC-AC-Succ-d4T], the IC50 [1] is reported as 963 nM and the IC50 [2] is reported as 510 nM.
For `CCCCCCCCCCCC(=O)O[C@H](CCCCCCCCCCC)CC(=O)NC(CCOP(=O)(O)O)C(=O)NCCCC(COC(=O)CCCCC(O)CO)NC(=O)C[C@H](O)CCCCCCCCCCC` (stereo partly drawn) [OM-197-FV6, 3-[(R)-dodecanoyloxytetradecanoylamino]-4oxo-5-aza-9-[(R)-3-hydroxytetradecanoylamino]-decan-1,10-diol 1-dihydrogenphate 10-(6,7-dihydroxyheptanoate)], the “production of MxA protein” value [3] was “significant rise”, the “NK activity level” value ([4]; 1 μg/ml) was “comparable or slightly inferior to that induced by LPS” and the “% cytotoxicity” value ([4]; Ratio PBMC:K562 5.1) was 0%. The “Optical density at 490 nm, K562 + PBMC” value ([4]; Ratio PBMC:K562 5.1) was 1.4, the “Optical density at 490 nm, PBMC alone” value ([4]; Ratio PBMC:K562 5.1) was 0.079 and the “% cytotoxicity” value ([4]; Ratio PBMC:K562 10.1) was 12.9%. For the same compound, the “Optical density at 490 nm, K562 + PBMC” value ([4]; Ratio PBMC:K562 10.1) was 1.65, the “Optical density at 490 nm, PBMC alone” value ([4]; Ratio PBMC:K562 10.1) was 0.087 and the “% cytotoxicity” value ([4]; Ratio PBMC:K562 20.1) was 38.8%. For the same compound, the “Optical density at 490 nm, K562 + PBMC” value ([4]; Ratio PBMC:K562 20.1) was 2.1 and the “Optical density at 490 nm, PBMC alone” value ([4]; Ratio PBMC:K562 20.1, stimulus 24 hours) was 0.11.
For `CCCCCCCCCCCC(=O)O[C@H](CCCCCCCCCCC)CC(=O)N[C@H](CC(=O)O)C(=O)NCCC[C@H](COC(=O)CCCCCNC(=O)CCC(=O)OC[C@H]1O[C@@H](n2cc(C)c(=O)[nH]c2=O)C[C@@H]1N=[N+]=[N-])NC(=O)C[C@H](O)CCCCCCCCCCC` [OM-197-MC-AC-Succ-AZT], the IC50 [1] was 51.9 nM and the IC50 [2] was 61 nM.
In the case of `CCCCCCCCCCCC(=O)O[C@H](CCCCCCCCCCC)CC(=O)N[C@H](CC(=O)O)C(=O)NCCC[C@H](COC(=O)CCCCCN)NC(=O)C[C@H](O)CCCCCCCCCCC` [OM-197-MC-AC, N—[(R)-3-dodecanoyloxytetradecanoyl]-D-aspartic acid, α-N-{(4R)-5-(6-aminohexanoyloxy)-4-[(R)-3-hydroxytetradecanoylamino]pentyl}amide], the “γ IFN production” value [5] is reported as less than 100 pg/mL.
With `CCCCCCCCCCCC(=O)O[C@H](CCCCCCCCCCC)CC(=O)N[C@H](CC(=O)O)C(=O)NCCC[C@H](COP(=O)(O)O)NC(=O)C[C@H](O)CCCCCCCCCCC` [OM-197-MC-MP, N—[(R)-3-dodecanoyloxytetradecanoyl]-D-aspartic acid, α-N-{(4R)-5-dihydroxyphosphoryloxy-4-[(R)-3-hydroxytetradecanoyl-amino]pentyl}amide] the “pyrogenicity Results” value ([6]; 0.001 mg/Kg i.v.) was “non pyrogenic”, the “response in ° C. average (individual values)” value (shortened to “response in ° C. average”) ([6]; 0.001 mg/Kg i.v.) was 0.35 (0.10, 0.05, 0.20) ° C. and 0.25 (0.00, 0.10, 0.15) ° C and the “pyrogenicity Results” value ([6]; 0.01 mg/Kg i.v.) was “non pyrogenic”. The “response in ° C. average” value ([6]; 0.01 mg/Kg i.v.) was 0.65 (0.00, 0.45, 0.20) ° C. and 0.35 (0.20, 0.15, 0.00) ° C, the “pyrogenicity Results” value ([6]; 0.1 mg/Kg i.v.) was “pyrogenic” and the “response in ° C. average” value ([6]; 0.1 mg/Kg i.v.) was 2.00 (1.45, 0.05, 0.50) ° C. and 2.85 (1.10, 1.20, 0.55) ° C. For the same compound, the “pyrogenicity Results” value ([6]; 1 mg/Kg i.v.) was “pyrogenic” and the “response in ° C. average” value ([6]; 1 mg/Kg i.v.) was 3.40 (1.50, 0.60, 1.30) ° C. and 3.25 (1.25, 1.45, 0.55) ° C.
